Measured values: paper PMC7738880, “Identification of novel CD44v6-binding peptides that block CD44v6 and deliver a pro-apoptotic peptide to tumors to inhibit tumor growth and metastasis in mice” (Theranostics, 2021)
Residues, ends and D or L forms follow the SMILES beside them.

Experiments:
[1] = biological target: T1, recombinant human CD44v6-Fc protein (Homo sapiens, UniProt P16070); assay: ELISA of peptide binding to recombinant proteins; details: 10 µM biotin-labeled peptide, 4 °C, 1 h
T1 sequence (P16070 386-428 limits assumed): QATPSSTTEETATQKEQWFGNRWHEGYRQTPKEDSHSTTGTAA
Description: Supplementary Information
Supplementary Materials and Methods […]
peroxidase-conjugated neutravidin (1:10,000 dilution; ThermoFisher Scientific, Waltham, MA) for 30 min at room temperature. Enzymatic activity was detected using a 3,3ʹ,5,5ʹ-tetramethylbenzidine substrate (ThermoFisher Scientific), and the reaction was stopped using 2 M […]
sulfuric acid. […]
Enzyme-linked immunosorbent assay (ELISA) of peptide binding to recombinant proteins ELISA plates were coated overnight with 100 μL of recombinant human CD44v6-Fc and CD44-Fc proteins (R&D Systems, Minneapolis, MN) at a concentration of 1 μg/mL in Tris-buffered saline with 0.05% Tween-20. BSA was used as a control. After coating, plates were incubated with 10 µM biotin-labeled CD44v6-binding peptides at 4 °C for 1 h. After washing, the cells were incubated with horseradish peroxidase-conjugated neutravidin (1:10,000 dilution; ThermoFisher Scientific) for 30 min at room temperature. Detection of enzymatic activity and measurement of absorbance was performed as described above. Relative binding was calculated based on the absorbance, in which the absorbance of BSA was set to 1.

[2] = biological target: T2, CD44v6 from MDA-MB231 cell lysates (Homo sapiens, UniProt P16070); assay: Pull-down assay with biotin-labeled peptides; assay type: binding; details: biotinylated peptide 25 µM, streptavidin beads, immunoblotting
T2 sequence (P16070 386-428 limits assumed): T1 sequence (P16070 386-428 limits assumed)
Description: Biotin-labeled peptides were incubated with streptavidin magnetic beads (Bioclone Inc., San Diego, CA) at room temperature for 30-60 min under gentle rotation. MDA-MB231 cells were then lysed using a cell lysis reagent (ThermoFisher Scientific) containing protease inhibitors. The lysates were incubated with the biotinylated peptide (25 µM) and streptavidin bead complexes at room temperature for 30-60 min under gentle rotation. In another set of assays, the recombinant human CD44v6 protein was used instead of the cell lysates. The complexes were pulled down and incubated with an elution buffer containing 2 mM D-biotin (Bioclone Inc.) for 5-10 min, and the eluates were collected and subjected to electrophoresis.

[3] = biological target: T3, recombinant human CD44-Fc protein (Homo sapiens, UniProt P16070); assay: SPR analysis of peptide binding to CD44-Fc; details: biotin-conjugated peptide on streptavidin chip, CD44-Fc 0.125-2 µM
T3 construct: Fc; purchased R&D Systems
Description: The binding affinity (KD) of CD44v6-binding peptides to the CD44v6 protein was measured using an SPR instrument (Reichert Technologies, Depew, NY). A streptavidin chip was used as the immobilization substrate and exposed to biotin-labeled peptides (25 μΜ) at 5 μL/min for 50 min. The streptavidin only surface was used for the reference surface. All SPR signals were corrected by subtraction with the response of the reference surface. After washing, the chip was flowed with a solution of CD44v6-Fc or CD44-Fc protein (R&D Systems, Minneapolis, MN) in binding buffer (137 mM NaCl, 10 mM phosphate, 2.7 mM KCl pH 7.4, 62.5 µM BSA, and 0.005% Tween-20) at concentrations of 0.125, 0.25, 0.5, 1, and 2 μM at 10 μL/min for 3 min. Five concentrations (0.125, 0.25, 0.5, 1, and 2 µM) of CD44v6-Fc and CD44-Fc were used in a single-cycle dynamic SPR measurements. Resonance units were recorded and analyzed using Scrubber 2.0 software (BioLogic Software, Campbell, Australia). KD values were calculated by analyzing the steady-state binding data by fitting the curve of binding level against concentration with a 1:1 binding model (GraphPad Prism 7.0 software).

[4] = tested on: MDA-MB231 subcutaneous tumors; assay: In vivo whole-body and ex vivo fluorescence imaging of tumor homing; set-up: species or system BALB/c nude mouse; details: Flamma 675 NIR dye-labeled peptide 1 mg/kg i.v.; for ex vivo accumulation in tumors versus organs: 6 h post-injection, n = 3/group; for in vivo fluorescence signals at tumor areas: imaging 1-6 h
Description: Mice for animal experiments were purchased from Orient Bio Inc. (Seongnam, Korea) and maintained in conformance with the Guidelines of the Institutional Animal Care and Use Committee of Kyungpook National University (permission no. 2014-1-121). A total of 1 × 10^6 MDA-MB231 cells were subcutaneously injected into the right flank of each 6-week-old female BALB/c nude mouse. When the tumor reached a volume of approximately 100 mm^3, the mouse was injected intravenously with Flamma 675 NIR fluorescence dye-labeled peptides (1 mg/kg body weight). Whole-body fluorescence imaging was performed under inhalational anesthesia using an IVIS imaging system (Perkin Elmer). After in vivo imaging, each mouse was euthanized, the tumor and control organs (liver, kidney, spleen, heart, and lung) were isolated, and ex vivo images were obtained using the IVIS imaging system.

[5] = tested on: MDA-MB231-luc cells; assay: MDA-MB231-luc experimental lung metastasis model; assay type: in vivo; details: for number of tumor nodules in the lungs, peptide in combination with crizotinib versus single treatment / survival rate, peptide in combination with crizotinib versus single treatment: peptide 14.2 mg/kg i.v. plus crizotinib 25 mg/kg oral; for numbers of metastatic tumor nodules in the lungs / weights of the isolated lungs: peptide 14.2 mg/kg i.v. thrice weekly for 3 weeks; for luminescence signals and total photon flux in the whole body: peptide 14.2 mg/kg i.v. thrice weekly for 3 weeks from 1 h after tumor cell injection; for survival rate: peptide 14.2 mg/kg i.v. thrice weekly or crizotinib 25 mg/kg oral twice weekly, 3 weeks, single treatment; for liver and kidney functional marker levels (BUN, CRE, AST, ALT): peptide alone or in combination with crizotinib, serum, n = 5/group
Description: A mouse model of lung metastasis of breast cancer was prepared by injecting 1 × 10^6 MDA-MB231-luc cells into 6-week-old female BALB/c nude mice via tail vein. To monitor the localization of the tumor cells in the lungs, the mice were injected intraperitoneally with D-luciferin at a dose of 150 mg/kg body weight and subjected to a whole-body bioluminescence imaging using IVIS imaging system (Perkin Elmer) after a 10-min resting period. Mice (n = 10 per group) were randomly assigned to groups based on the luminescence intensity. At 1 h after tumor cell injection, tumor-bearing mice received intravenous injections of CD44v6-binding peptides through the tail vein (14.2 mg/kg body weight, thrice weekly for 3 weeks) alone or in combination with orally administered crizotinib in 5% dimethyl sulfoxide (DMSO) (25 mg/kg of body weight, twice weekly for 3 weeks) as previously described, [29]. Metastatic tumor growth after treatments was monitored by measuring the total photon flux (number of photons/second) in the whole body using the IVIS imaging system. The body weights of mice and tumor ulceration were monitored throughout the treatment period. At the end of the treatment period, half of the mice (n = 5 per group) were used for the collection of blood, sacrificed, the lungs were harvested and weighed, and the numbers of metastatic tumor nodules in the lungs were counted. The remaining mice (n = 5 per group) were maintained until death to determine the survival rates. For the analysis of hematological parameters, 1 mL of blood was collected from each mouse and separated into 500 µL aliquots used to prepare serum and plasma. Serum was obtained by centrifuging clotted blood at 4 °C twice, followed by filtration (pore size: 0.22 µm). Plasma was obtained by centrifuging ethylenediaminetetraacetic acid-treated samples. Hematological parameters and liver and kidney function markers were measured by DGMIF (Daegu, Korea).

T3 sequence (P16070 21-361 isoform P16070-12 limits assumed): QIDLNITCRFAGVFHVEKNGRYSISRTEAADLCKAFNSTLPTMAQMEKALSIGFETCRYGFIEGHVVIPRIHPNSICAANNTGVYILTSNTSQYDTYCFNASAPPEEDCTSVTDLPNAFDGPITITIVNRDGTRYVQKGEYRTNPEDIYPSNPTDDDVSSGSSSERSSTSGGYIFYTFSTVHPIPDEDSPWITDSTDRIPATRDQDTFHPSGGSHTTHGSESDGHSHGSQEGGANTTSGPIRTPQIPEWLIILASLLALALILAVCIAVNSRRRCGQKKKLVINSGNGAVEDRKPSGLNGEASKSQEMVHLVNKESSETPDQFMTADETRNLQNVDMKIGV

Row | SMILES | binding to recombinant CD44v6-Fc protein coated on plates compared with CD44-Fc and albumin [1] | pull-down of CD44v6 and CD44 from cell lysates [2] | pull-down of c-Met together with CD44v6 from cell lysates [2] | binding to the CD44 protein [3] | ex vivo accumulation in tumors versus organs [4] | in vivo fluorescence signals at tumor areas [4] | number of tumor nodules in the lungs, peptide in combination with crizotinib versus single treatment [5] | survival rate, peptide in combination with crizotinib versus single treatment [5] | numbers of metastatic tumor nodules in the lungs [5] | weights of the isolated lungs [5] | luminescence signals and total photon flux in the whole body [5] | survival rate [5] | liver and kidney functional marker levels (BUN, CRE, AST, ALT) [5] | serum alanine transferase levels ([5]; above the normal ranges, 14.2 mg/kg i.v. thrice weekly for 3 weeks)
1 | CC(C)C[C@H](NC(=O)[C@H](CCC(N)=O)NC(=O)[C@H](Cc1c[nH]c2ccccc12)NC(=O)[C@H](CCC(=O)O)NC(=O)[C@H](CC(N)=O)NC(=O)[C@@H](N)CS)C(=O)N[C@@H](CCCCN)C(=O)N[C@@H](CO)C(=O)N[C@@H](CS)C(=O)O [NEW] (H-CNEWQLKSC-OH; N-terminus and C-terminus assumed) | preferentially bound | selectively pulled down CD44v6 but not CD44 | pulled down only CD44v6 | did not bind | higher levels of NLN and NEW accumulation in tumors than in control organs | higher than those associated with the control peptide until 4 h | more efficiently reduced | increased the survival rate | reduced | reduced | decreased | increased | within or close to the normal ranges | 
2 | CC[C@H](C)[C@H](NC(=O)[C@@H](NC(=O)[C@H](CC(N)=O)NC(=O)[C@H](CC(C)C)NC(=O)[C@H](CC(N)=O)NC(=O)[C@@H](N)CS)[C@@H](C)O)C(=O)N[C@@H](CC(=O)O)C(=O)N[C@H](C(=O)N[C@@H](CS)C(=O)O)[C@@H](C)O [NLN] (H-CNLNTIDTC-OH; N-terminus and C-terminus assumed) | preferentially bound | selectively pulled down CD44v6 but not CD44 | pulled down both c-Met and CD44v6 | did not bind | higher levels of NLN and NEW accumulation in tumors than in control organs | higher than those associated with the control peptide until 4 h | more efficiently reduced | increased the survival rate | reduced | reduced | decreased | increased | within or close to the normal ranges | significantly increased
